From US20250340519A1, “RADIOLABELLED COMPOUND” (OXFORD UNIVERSITY INNOVATION LIMITED, priority 2018, published 2025)
Where “and” joins values, the source holds several entries; their conditions need not be identical. Equal values may be shown once.

Assay: Ex vivo biodistribution in naïve CBA/Carl mice
Settings: 1 h p.i., individual animals
Description: Dynamic PET/CT images were acquired following an intravenous bolus administration of [^18F]-olaparib. Biodistribution studies, where selected tissues were harvested, were performed 1 h post injection. Some animals were also administered an excess of cold, unlabelled olaparib for evaluating the specificity of tumour uptake. EF5, a hypoxia-selective marker, was injected 2 h before culling of the animal. Digital autoradiography was performed on tumour sections. Image analysis was performed using PMOD.
Dynamic PET/CT images were acquired using a VECTor ^4CT integrated PET/CT system. Mice were anaesthetised by 4% isoflurane gas (0.5 L/min O2) and placed on a custom-built imaging cradle in a prone position. Animals mice were intravenously injected with [^18F]-olaparib or (3-5 MBq, 8-11 GBq/μmol, through a tail vein catheter, and dynamic imaging was performed over 45-60 min after radiolabelled compound administration. PET acquisition (150 s per frame, using list mode acquisition) using an ultra-high resolution rat/mouse 1.8 mm collimator, followed by a cone-beam CT scan (55 kV, 0.19 mA) for anatomical reference and attenuation correction. Anaesthesia was maintained at 2.5% isoflurane throughout the duration of the image acquisition. PET images were reconstructed using U-SPECT-Rec3.22 software (MILabs, Utrecht, The Netherlands), applying a pixel-based algorithm with 8 subsets, 6 iterations and 0.8 mm voxel size for ^18F (energy window settings 477.9-584.1 keV).
After PET/CT image acquisition, animals were euthanized by cervical dislocation and selected organs, tissues and blood were removed. The amount of radioactivity in each organ was measured using a 2480 WIZARD^2 gamma counter (PerkinElmer). Counts per minute were converted into MBq using a calibration curve generated from known standards. Values were decay-corrected to the time of injection, and the percentage of the injected dose per gram (% ID/g) of each tissue was calculated.

- Ex vivo biodistribution Blood: 0.11 % ID/g (2×) and 0.14 % ID/g
SMILES: O=C(c1cc(Cc2n[nH]c(=O)c3ccccc23)ccc1[18F])N1CCN(C(=O)C2CC2)CC1 [[^18F]olaparib]
- Ex vivo biodistribution Fat: 0.05 % ID/g and 0.03 % ID/g and 0.26 % ID/g
- Ex vivo biodistribution Heart: 0.19 % ID/g and 0.17 % ID/g and 0.34 % ID/g
- Ex vivo biodistribution Kidney: 0.59 % ID/g and 0.60 % ID/g and 1.01 % ID/g
- Ex vivo biodistribution Large intestine: 0.92 % ID/g and 1.64 % ID/g and 2.99 % ID/g
- Ex vivo biodistribution Liver: 2.55 % ID/g and 4.02 % ID/g and 5.27 % ID/g
- Ex vivo biodistribution Lung: 0.29 % ID/g and 0.19 % ID/g and 0.34 % ID/g
- Ex vivo biodistribution Muscle: 0.20 % ID/g and 0.14 % ID/g and 0.34 % ID/g
- Ex vivo biodistribution Pancreas: 0.91 % ID/g and 0.70 % ID/g and 1.30 % ID/g
- Ex vivo biodistribution Skin: 0.16 % ID/g and 0.10 % ID/g and 0.27 % ID/g
- Ex vivo biodistribution Small intestine: 7.75 % ID/g and 10.33 % ID/g and 17.40 % ID/g
- Ex vivo biodistribution Spleen: 2.09 % ID/g and 1.91 % ID/g and 3.68 % ID/g
- Ex vivo biodistribution Stomach: 0.46 % ID/g and 0.26 % ID/g and 0.58 % ID/g
